Tested on: cancer cell line MDA-MB-468
Experiment: Combination index with known cancer drugs against proliferation (Calcusyn software)
Assay type: cell-based
From the text: A combination index of less than 0.1 indicates very strong synergy; a combination index of 0.1 to 0.3 indicates strong synergism; a combination index of 0.3 to 0.7 indicates synergism; a combination index of 0.7 to 0.85 indicates moderate synergism; a combination index of 0.85 to 0.9 indicates slight synergism and a combination index of 0.9 to 1.1 indicates only very slight synergism, said combination being close to merely additive.
The combination index may be calculated using calcusyn software.
Evidence of synergy was determined by calculation of the combination index using Calcusyn software.
The MTT assay was used initially to determine the anti-proliferative activity of the test compounds. In the MTT assay a yellow thiazolyl blue tetrazolium bromide salt (MTT) is reduced, in metabolically active cells, to form insoluble purple formazan crystals which are solubilised by the addition of dimethyl sulphoxide (DMSO). Absorbance readings can then be determined spectrophotometrically and a relationship established between control untreated cells and drug treated cells enabling the quantification of anti-proliferative changes as a result of drug treatment (Mosmann, 1983).
Wells containing medium only were used as blanks. Following the attachment period, cells were treated with appropriate drug concentrations (20 μl added per well). 40 mg/ml stock drug solutions, in DMSO, were stored at −20° C. and on the day of drug treatment working solutions of 4 mg/ml were prepared in medium which was further diluted to achieve final drug dilution volumes of 20 μl. Initial screening was determined over a concentration range of 1-200 μg/ml. For potent compounds the assay was repeated over a narrower concentration range to determine accurate IC50 values. Cells were exposed to drug for 96 h continual exposure (37° C., 5% CO2). Following the 96 h incubation, 50 μl MTT solution (1 g MTT/500 ml PBS) was added per well and the plates were further incubated for 4 h (37° C., 5% CO2). After incubation the MTT and medium was removed from the wells and 100 μl DMSO added per well. Plates were agitated on an orbital mixer platform (Stuart Scientific) for 10 minutes. Absorbance was measured at 570 nm on a Biotrak II (Amersham Bioscience) plate reader. IC50 values were calculated comparing control and drug treated cells.

Measured: Combination Index

CCCCCCNC(=O)c1ccc2c(c1O)C(=O)OC(C)C2 (racemic) [ALM-49, Hexyl Amide]
0.029: Irinotecan 1 × 10^−4 mol/L, ALM compound 0.1 μg/ml
0.625: Cisplatin 1 × 10^−7 mol/L, ALM compound 0.1 μg/ml
0.234: Etoposide 1 × 10^−4 mol/L, ALM compound 0.5 μg/ml
No: Cisplatin 1 × 10^−3 mol/L, ALM compound 0.1 μg/ml | Cisplatin 1 × 10^−3 mol/L, ALM compound 0.5 μg/ml | Cisplatin 1 × 10^−3 mol/L, ALM compound 1.0 μg/ml | Cisplatin 1 × 10^−3 mol/L, ALM compound 5.0 μg/ml | Cisplatin 1 × 10^−4 mol/L, ALM compound 0.1 μg/ml | Cisplatin 1 × 10^−4 mol/L, ALM compound 0.5 μg/ml | Cisplatin 1 × 10^−4 mol/L, ALM compound 1.0 μg/ml | Cisplatin 1 × 10^−4 mol/L, ALM compound 5.0 μg/ml | Cisplatin 1 × 10^−5 mol/L, ALM compound 0.1 μg/ml | Cisplatin 1 × 10^−5 mol/L, ALM compound 0.5 μg/ml | Cisplatin 1 × 10^−5 mol/L, ALM compound 1.0 μg/ml | Cisplatin 1 × 10^−5 mol/L, ALM compound 5.0 μg/ml | Cisplatin 1 × 10^−6 mol/L, ALM compound 0.1 μg/ml | Cisplatin 1 × 10^−6 mol/L, ALM compound 0.5 μg/ml | Cisplatin 1 × 10^−6 mol/L, ALM compound 1.0 μg/ml | Cisplatin 1 × 10^−6 mol/L, ALM compound 5.0 μg/ml | Cisplatin 1 × 10^−7 mol/L, ALM compound 0.5 μg/ml | Cisplatin 1 × 10^−7 mol/L, ALM compound 1.0 μg/ml | Cisplatin 1 × 10^−7 mol/L, ALM compound 5.0 μg/ml | Cisplatin 1 × 10^−8 mol/L, ALM compound 0.5 μg/ml | Cisplatin 1 × 10^−8 mol/L, ALM compound 1.0 μg/ml | Cisplatin 1 × 10^−8 mol/L, ALM compound 5.0 μg/ml | Cisplatin 1 × 10^−9 mol/L, ALM compound 0.5 μg/ml | Cisplatin 1 × 10^−9 mol/L, ALM compound 1.0 μg/ml | Cisplatin 1 × 10^−9 mol/L, ALM compound 5.0 μg/ml | Doxorubicin 1 × 10^−4 mol/L, ALM compound 0.1 μg/ml | Doxorubicin 1 × 10^−4 mol/L, ALM compound 0.5 μg/ml | Doxorubicin 1 × 10^−4 mol/L, ALM compound 1.0 μg/ml | Etoposide 1 × 10^−6 mol/L, ALM compound 0.1 μg/ml | Etoposide 1 × 10^−6 mol/L, ALM compound 1.0 μg/ml | Etoposide 1 × 10^−6 mol/L, ALM compound 5.0 μg/ml | Etoposide 1 × 10^−7 mol/L, ALM compound 1.0 μg/ml | Etoposide 1 × 10^−7 mol/L, ALM compound 5.0 μg/ml | Etoposide 1 × 10^−8 mol/L, ALM compound 0.1 μg/ml | Etoposide 1 × 10^−8 mol/L, ALM compound 0.5 μg/ml | Etoposide 1 × 10^−8 mol/L, ALM compound 1.0 μg/ml | Etoposide 1 × 10^−8 mol/L, ALM compound 5.0 μg/ml | Etoposide 1 × 10^−9 mol/L, ALM compound 0.5 μg/ml | Etoposide 1 × 10^−9 mol/L, ALM compound 1.0 μg/ml | Etoposide 1 × 10^−9 mol/L, ALM compound 5.0 μg/ml | Etoposide 1 × 10^−10 mol/L, ALM compound 0.5 μg/ml | Etoposide 1 × 10^−10 mol/L, ALM compound 1.0 μg/ml | Etoposide 1 × 10^−10 mol/L, ALM compound 5.0 μg/ml | Irinotecan 1 × 10^−3 mol/L, ALM compound 0.1 μg/ml | Irinotecan 1 × 10^−5 mol/L, ALM compound 0.1 μg/ml | Irinotecan 1 × 10^−5 mol/L, ALM compound 0.5 μg/ml | Irinotecan 1 × 10^−5 mol/L, ALM compound 1.0 μg/ml | Irinotecan 1 × 10^−5 mol/L, ALM compound 5.0 μg/ml | Irinotecan 1 × 10^−6 mol/L, ALM compound 0.1 μg/ml | Irinotecan 1 × 10^−6 mol/L, ALM compound 0.5 μg/ml | Irinotecan 1 × 10^−6 mol/L, ALM compound 1.0 μg/ml | Irinotecan 1 × 10^−6 mol/L, ALM compound 5.0 μg/ml | Irinotecan 1 × 10^−7 mol/L, ALM compound 0.1 μg/ml | Irinotecan 1 × 10^−7 mol/L, ALM compound 0.5 μg/ml | Irinotecan 1 × 10^−7 mol/L, ALM compound 1.0 μg/ml | Irinotecan 1 × 10^−7 mol/L, ALM compound 5.0 μg/ml | Irinotecan 1 × 10^−8 mol/L, ALM compound 0.1 μg/ml | Irinotecan 1 × 10^−8 mol/L, ALM compound 0.5 μg/ml | Irinotecan 1 × 10^−8 mol/L, ALM compound 1.0 μg/ml | Irinotecan 1 × 10^−8 mol/L, ALM compound 5.0 μg/ml | Irinotecan 1 × 10^−9 mol/L, ALM compound 0.1 μg/ml | Irinotecan 1 × 10^−9 mol/L, ALM compound 0.5 μg/ml | Irinotecan 1 × 10^−9 mol/L, ALM compound 1.0 μg/ml | Irinotecan 1 × 10^−9 mol/L, ALM compound 5.0 μg/ml | Irinotecan 1 × 10^−10 mol/L, ALM compound 0.1 μg/ml | Irinotecan 1 × 10^−10 mol/L, ALM compound 0.5 μg/ml | Irinotecan 1 × 10^−10 mol/L, ALM compound 1.0 μg/ml | Irinotecan 1 × 10^−10 mol/L, ALM compound 5.0 μg/ml
0.410: Doxorubicin 1 × 10^−5 mol/L, ALM compound 0.1 μg/ml
0.78: Etoposide 1 × 10^−7 mol/L, ALM compound 0.5 μg/ml
0.720: Doxorubicin 1 × 10^−5 mol/L, ALM compound 5.0 μg/ml
0.836: Etoposide 1 × 10^−9 mol/L, ALM compound 0.1 μg/ml
0.019: Irinotecan 1 × 10^−4 mol/L, ALM compound 0.5 μg/ml
0.968: Doxorubicin 1 × 10^−4 mol/L, ALM compound 5.0 μg/ml
0.119: Cisplatin 1 × 10^−8 mol/L, ALM compound 0.1 μg/ml
0.715: Irinotecan 1 × 10^−3 mol/L, ALM compound 1.0 μg/ml
0.438: Doxorubicin 1 × 10^−5 mol/L, ALM compound 1.0 μg/ml
0.009: Cisplatin 1 × 10^−2 mol/L, ALM compound 1.0 μg/ml
1.184: Etoposide 1 × 10^−5 mol/L, ALM compound 0.1 μg/ml
0.051: Cisplatin 1 × 10^−2 mol/L, ALM compound 5.0 μg/ml
0.606: Irinotecan 1 × 10^−3 mol/L, ALM compound 0.5 μg/ml
0.557: Irinotecan 1 × 10^−3 mol/L, ALM compound 5.0 μg/ml
0042: Irinotecan 1 × 10^−4 mol/L, ALM compound 1.0 μg/ml
0.659: Etoposide 1 × 10^−5 mol/L, ALM compound 0.5 μg/ml
0.210: Etoposide 1 × 10^−4 mol/L, ALM compound 1.0 μg/ml
0.002: Cisplatin 1 × 10^−2 mol/L, ALM compound 0.5 μg/ml
0.003: Cisplatin 1 × 10^−2 mol/L, ALM compound 0.1 μg/ml
0.487: Cisplatin 1 × 10^−9 mol/L, ALM compound 0.1 μg/ml
0.385: Etoposide 1 × 10^−4 mol/L, ALM compound 0.1 μg/ml
0.175: Etoposide 1 × 10^−4 mol/L, ALM compound 5.0 μg/ml
0.436: Doxorubicin 1 × 10^−5 mol/L, ALM compound 0.5 μg/ml
0.941: Etoposide 1 × 10^−5 mol/L, ALM compound 5.0 μg/ml
0.042: Irinotecan 1 × 10^−4 mol/L, ALM compound 5.0 μg/ml
0.806: Etoposide 1 × 10^−6 mol/L, ALM compound 0.5 μg/ml
1.167: Etoposide 1 × 10^−7 mol/L, ALM compound 0.1 μg/ml
0.344: Etoposide 1 × 10^−10 mol/L, ALM compound 0.1 μg/ml
1.065: Etoposide 1 × 10^−5 mol/L, ALM compound 1.0 μg/ml

Source: patent US20090047221A1 (NIPRI LIMITED, priority 2004, published 2009)
